The results in this text go back to US12162848B2, “Inhibitors of protein tyrosine phosphatase, compositions, and methods of use” (BRISTOL-MYERS SQUIBB COMPANY, priority 2022, dated 2024).

One experiment concerns the target T1, PTPN2 enzyme (Homo sapiens, UniProt P17706).
T1 sequence (P17706 1-415): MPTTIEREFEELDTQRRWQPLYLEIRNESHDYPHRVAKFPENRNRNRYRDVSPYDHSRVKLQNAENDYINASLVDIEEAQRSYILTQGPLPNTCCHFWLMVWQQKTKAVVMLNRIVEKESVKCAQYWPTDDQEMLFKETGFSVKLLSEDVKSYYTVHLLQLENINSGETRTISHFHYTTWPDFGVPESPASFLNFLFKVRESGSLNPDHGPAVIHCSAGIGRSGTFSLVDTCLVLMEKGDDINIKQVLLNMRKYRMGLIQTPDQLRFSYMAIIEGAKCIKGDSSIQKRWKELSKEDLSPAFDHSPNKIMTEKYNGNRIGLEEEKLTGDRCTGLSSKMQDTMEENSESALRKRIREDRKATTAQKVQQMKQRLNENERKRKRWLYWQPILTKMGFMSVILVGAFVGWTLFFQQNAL
The experiment is described as follows: PhosphoSens PTPN2 biochemical assay. Particulars: substrate AQT0264 20 μM, room temperature; read-out: PTPN2 BCHEM IC50. As to the method: A PhosphoSens® kinase assay was performed as described by the vendor (AssayQuant Technologies, Marlborough, MA). Briefly, 1000×solutions of compounds were prepared in DMSO via serial dilution of the 10 mM DMSO stocks using 3-fold intervals in a 384-well reagent plate. 50 nL of the compound dilution series was then added to the corresponding wells of a 384-well assay plate. […] of 1.25×substrate (AQT0264) in 1× assay buffer (50 mM HEPES pH 7.5, 500 μM EGTA, […] MgCl2, 0.01% Brij-35, 1% Glycerol, 1 mM DTT, and 0.2 mg/mL BSA) was transferred to each well of the assay plate to achieve a final substrate concentration of 20 μM. Finally, […] of 5×PTPN2 enzyme stock was added to each well of the assay plate for a final enzyme concentration of […]. Reaction progress curves were collected by sampling fluorescence intensity at the excitation wavelength 360 nm (λex360) and emission wavelength 480 nm (λem480) every 71 seconds for one hour using a Synergy H4 plate reader (BioTek Instruments/Agilent Technologies, Winooski, VT) at room temperature.

For experiment [1], the system named is phosphorylated STAT1 protein levels in B16-F10 cells. The experiment can be described thus: Phospho-STAT1 (Tyr701) HTRF assay in IFN-gamma treated B16-F10 cells. Type of experiment: cell-based. Particulars: mouse IFN-gamma 100 ng/mL, 1 hour, read-out: pSTAT1 HTRF B16 EC50. On the procedure:
B16-F10 cells (ATCC, Manassas, VA, #CRL-6475) were cultured in DMEM growth medium (ThermoFisher Scientific, Waltham, MA, #11995-040) supplemented with 10% heat inactivated FBS (ThermoFisher Scientific, #16140-071) and 1% pen/strep (ThermoFisher Scientific, #15140-122). The cells were seeded into a white opaque 384-well tissue culture treated microplate (PerkinElmer, Waltham, MA, #6007688) at a density of 10,000 cells/well in 20 uL total volume and incubated overnight at 37 C and 5% CO2. 30 nL of compounds dissolved in DMSO were then transferred from a source plate into target wells with the Echo650 acoustic liquid handler (Beckman Coulter, Indianapolis, IN). Negative control wells received 30 nL of DMSO only (0.15% final concentration). Plates were returned to the incubator for 1 hour and then cells treated with either 5 uL of growth medium or 5 uL of growth medium containing 500 ng/mL of recombinant mouse IFN-gamma protein (R&D Systems, Minneapolis, MN, #485-MI/CF, 100 ng/mL final concentration) using the Assist automated pipetting platform (INTEGRA Biosciences, Hudson, NH). Plates were incubated at 37 C for 1 hour and assayed for phosphorylated STAT1 protein levels with the phospho-STAT1 (Tyr701) HTRF kit (Cisbio, Bedford, MA, #63ADK026PEH) according to manufacturer's instructions.
(TR-FRET usually uses a lanthanide donor and a delayed reading to cut background.)

A further experiment deals with B16-F10 cells. The experiment can be described thus: Cell proliferation assay (CellTiter-Glo) in IFN-gamma treated B16-F10 cells. Type of experiment: cell-based. Particulars: 120 h, mouse IFN-gamma 10 ng/mL, read-out: PTPN2 Prolif 5d B16F10 EC50. As to the method: B16-F10 cells (ATCC, Manassas, VA, #CRL-6475) were cultured in DMEM growth medium (ThermoFisher Scientific, Waltham, MA, #11995-040) supplemented with 10% heat inactivated FBS (ThermoFisher Scientific, #16140-071) and 1% pen/strep (ThermoFisher Scientific, #15140-122). The cells were seeded into two white opaque 384-well tissue culture treated microplates (PerkinElmer, Waltham, MA, #6007688) at a density of 100 cells/well in 20 uL total volume and incubated overnight at 37 C and 5% CO2. 30 nL of compounds dissolved in DMSO were then transferred from a source plate into target wells with the Echo650 acoustic liquid handler (Beckman Coulter, Indianapolis, IN). Negative control wells received 30 nL of DMSO only (0.15% final concentration). Plates were returned to the incubator for 1 hour and then cells treated with either 5 uL of growth medium or 5 uL of growth medium containing 50 ng/mL of recombinant mouse IFN-gamma protein (R&D Systems, Minneapolis, MN, #485-MI/CF, 10 ng/mL final concentration) using the Assist automated pipetting platform (INTEGRA Biosciences, Hudson, NH). Plates were incubated at 37 C for 4 days and cell proliferation assayed with the CellTiter-Glo reagent (Promega, Madison, WI, #G7573, 25 uL per well). […] Off-target compound mediated cytotoxicity was identified by checking for growth inhibition in the absence of IFNg.
For orientation: Cellular ATP, detected with luciferase, serves as a proxy for viable cell number.

On to `O=C1CN(c2c(O)cc(C3CCCNC3)cc2F)S(=O)(=O)N1` (centres unmarked) [EXAMPLE 1, 5-(2-fluoro-6-hydroxy-4-(piperidin-3-yl)phenyl)-1,2,5-thiadiazolidin-3-one 1,1-dioxide], for which the concentration for half-maximal inhibition (IC50) at PTPN2 enzyme was determined as 119 nM. The EC50 in experiment [1] turned out to be 1.28 µM; with B16-F10 cells, 0.882 µM.
For `CN1CCC(c2cc(O)c(N3CC(=O)NS3(=O)=O)c(F)c2)CC1` [EXAMPLE 4, 5-[2-fluoro-6-hydroxy-4-(1-methyl-4-piperidyl)phenyl]-1,1-dioxo-1,2,5-thiadiazolidin-3-one] the same measures were 807 nM, ≥ 15 µM and ≥ 15 µM.
For `CC(C)CCN1CCCC(c2cc(O)c(N3CC(=O)NS3(=O)=O)c(F)c2)C1` (centres unmarked) [EXAMPLE 5, 5-(2-fluoro-6-hydroxy-4-(1-isopentylpiperidin-3-yl)phenyl)-1,2,5-thiadiazolidin-3-one 1,1-dioxide] the same measures were 1020 nM, ≥ 15 µM and ≥ 15 µM.
For `O=C1CN(c2c(O)cc(-c3ccccn3)cc2F)S(=O)(=O)N1` [EXAMPLE 7, 5-(2-fluoro-6-hydroxy-4-(pyridin-2-yl)phenyl)-1,2,5-thiadiazolidin-3-one 1,1-dioxide], the 50% inhibitory concentration (IC50) on PTPN2 enzyme was 568 nM. The half-maximal effective concentration (EC50) (in experiment [1]; in the experiment with B16-F10 cells) was ≥ 15 µM throughout.
On to `O=C1CN(c2c(O)cc(-c3cccnc3)cc2F)S(=O)(=O)N1` [EXAMPLE 8, 5-(2-fluoro-6-hydroxy-4-(pyridin-3-yl)phenyl)-1,2,5-thiadiazolidin-3-one 1,1-dioxide], for which the concentration for half-maximal inhibition (IC50) on PTPN2 enzyme worked out at 199 nM. Moreover, the concentration for a half-maximal effect (EC50) in experiment [1] is 2.43 µM; with B16-F10 cells, ≥ 15 µM.
For `O=C1CN(c2c(O)cc(-c3ccncc3)cc2F)S(=O)(=O)N1` [EXAMPLE 9, 5-(2-fluoro-6-hydroxy-4-(pyridin-4-yl)phenyl)-1,2,5-thiadiazolidin-3-one 1,1-dioxide] the same measures were 322 nM, ≥ 15 µM and ≥ 15 µM.
Turning to `O=C1CN(c2c(O)cc(-c3ccc(Cc4ccccc4)cc3)cc2F)S(=O)(=O)N1` [EXAMPLE 10, 5-[4-(4-benzylphenyl)-2-fluoro-6-hydroxy-phenyl]-1,1-dioxo-1,2,5-thiadiazolidin-3-one], the half-maximal inhibitory concentration (IC50) at PTPN2 enzyme was 6140 nM. The concentration for a half-maximal effect (EC50) (in experiment [1]; with B16-F10 cells) was ≥ 15 µM each time.
For `O=C1CN(c2c(O)cc(-c3cccc(-c4ccccc4)c3)cc2F)S(=O)(=O)N1` [EXAMPLE 11, 5-[2-fluoro-6-hydroxy-4-(3-phenylphenyl)phenyl]-1,1-dioxo-1,2,5-thiadiazolidin-3-one], at PTPN2 enzyme, the IC50 is 1340 nM. In addition, the EC50 (in experiment [1]; in the experiment on B16-F10 cells) was ≥ 15 µM throughout.
With `O=C1CN(c2c(O)cc(-c3ccc(-c4ccc(F)cc4)cc3)cc2F)S(=O)(=O)N1` [EXAMPLE 12, 5-[2-fluoro-4-[4-(4-fluorophenyl)phenyl]-6-hydroxy-phenyl]-1,1-dioxo-1,2,5-thiadiazolidin-3-one], at PTPN2 enzyme, the half-inhibitory concentration (IC50) came out at 1990 nM. Besides, the EC50 (in experiment [1]; with B16-F10 cells) was ≥ 15 µM in each case.
`O=C1CN(c2c(O)cc(-c3ccc(N4CCOCC4)cc3)cc2F)S(=O)(=O)N1` [EXAMPLE 13, 5-[2-fluoro-6-hydroxy-4-(4-morpholinophenyl)phenyl]-1,1-dioxo-1,2,5-thiadiazolidin-3-one]: the half-maximal inhibitory concentration (IC50) at PTPN2 enzyme was 466 nM. The EC50 (in experiment [1]; with B16-F10 cells) was ≥ 15 µM each time.
With `O=C1CN(c2c(O)cc(C(=O)NC3CCNCC3)cc2F)S(=O)(=O)N1` [EXAMPLE 92, 4-(1,1-dioxido-4-oxo-1,2,5-thiadiazolidin-2-yl)-3-fluoro-5-hydroxy-N-(piperidin-4-yl)benzamide], the EC50 (in experiment [1]; in the experiment with B16-F10 cells) was ≥ 15 µM each time.
With `O=C1CN(c2c(O)cc(C(=O)N[C@H]3CCCNC3)cc2F)S(=O)(=O)N1` [EXAMPLE 93, (S)-4-(1,1-dioxido-4-oxo-1,2,5-thiadiazolidin-2-yl)-3-fluoro-5-hydroxy-N-(piperidin-3-yl)benzamide], the EC50 (in experiment [1]; in the experiment on B16-F10 cells) was ≥ 15 µM each time.
In the case of `O=C1CN(c2c(O)cc(C(=O)N[C@@H]3CCCNC3)cc2F)S(=O)(=O)N1` [EXAMPLE 94, (R)-4-(1,1-dioxido-4-oxo-1,2,5-thiadiazolidin-2-yl)-3-fluoro-5-hydroxy-N-(piperidin-3-yl)benzamide], the EC50 (in experiment [1]; with B16-F10 cells) was ≥ 15 µM throughout.
Take `CN(C)[C@H]1CC[C@H](NC(=O)c2cc(O)c(N3CC(=O)NS3(=O)=O)c(F)c2)CC1` [EXAMPLE 96, N-((1r,4r)-4-(dimethylamino)cyclohexyl)-4-(1,1-dioxido-4-oxo-1,2,5-thiadiazolidin-2-yl)-3-fluoro-5-hydroxybenzamide]: the EC50 (in experiment [1]; in the experiment on B16-F10 cells) was ≥ 15 µM each time.
Take `CC1(C)CCC(NCc2ccc(O)c(N3CC(=O)NS3(=O)=O)c2F)CC1` [EXAMPLE 97, 5-(3-(((4,4-dimethylcyclohexyl)amino)methyl)-2-fluoro-6-hydroxyphenyl)-1,2,5-thiadiazolidin-3-one 1,1-dioxide]: the EC50 (in experiment [1]; in the experiment with B16-F10 cells) was ≥ 15 µM in each case.
In the case of `O=C1CN(c2c(O)ccc(CN3CCOCC3)c2F)S(=O)(=O)N1` [EXAMPLE 99, 5-(2-fluoro-6-hydroxy-3-(morpholinomethyl)phenyl)-1,2,5-thiadiazolidin-3-one 1,1-dioxide], the EC50 (in experiment [1]; with B16-F10 cells) was ≥ 15 µM in each case.
As for `O=C1CN(c2c(O)ccc(CNC3CCCCC3)c2F)S(=O)(=O)N1` [EXAMPLE 100, 5-(3-((cyclohexylamino)methyl)-2-fluoro-6-hydroxyphenyl)-1,2,5-thiadiazolidin-3-one 1,1-dioxide], the half-maximal effective concentration (EC50) (in experiment [1]; with B16-F10 cells) was ≥ 15 µM in each case.
Turning to `O=C1CN(c2c(O)ccc(CNC3CCOCC3)c2F)S(=O)(=O)N1` [EXAMPLE 101, 5-(2-fluoro-6-hydroxy-3-(((tetrahydro-2H-pyran-4-yl)amino)methyl)phenyl)-1,2,5-thiadiazolidin-3-one 1,1-dioxide], the 50% effective concentration (EC50) (in experiment [1]; in the experiment on B16-F10 cells) was ≥ 15 µM each time.
For `CN1CCN(Cc2ccc(O)c(N3CC(=O)NS3(=O)=O)c2F)CC1` [EXAMPLE 103, 5-(2-fluoro-6-hydroxy-3-((4-methylpiperazin-1-yl)methyl)phenyl)-1,2,5-thiadiazolidin-3-one 1,1-dioxide], the EC50 (in experiment [1]; in the experiment with B16-F10 cells) was ≥ 15 µM each time.
`O=C1CN(c2c(O)ccc(C3CCNCC3)c2F)S(=O)(=O)N1` [EXAMPLE 105, 5-(2-fluoro-6-hydroxy-3-(piperidin-4-yl)phenyl)-1,2,5-thiadiazolidin-3-one 1,1-dioxide]: the concentration giving a half-maximal response (EC50) (in experiment [1]; in the experiment with B16-F10 cells) was ≥ 15 µM each time.

Broadly, the IC50 is the concentration needed to halve the response being measured. The term EC50 denotes the concentration at which the effect is half-maximal.
